Experimental data as given in patent US7368576B2, “Dipeptidyl peptidase IV inhibitors and their uses as anti-cancer agents” (Probiodrug AG, priority 2001, dated 2008).
“Also recorded” adds a separate entry of the source. Where a name gives a salt, the structure may show the parent alone.

Key:
MADB106 tumor cells [1] = experiment: Cancer colonization assay (lung surface tumor colonies); type: in vivo; details: F344 rats, 2 weeks after MADB106 injection; for number of lung surface tumor colonies, comparison of inhibitors: chronic intragastric infusion, isoleucyl thiazolidine fumarate 4 mg/24 h, the others 0.1 mg/24 h, vs. saline SHAM
Procedure: (§1) Cell culture, injection of tumor cells, dissection of the animals and immunohistochemistry were conducted as previously described (von Hörsten et al., 2000). In brief, 1×10^6 MADB106 tumor cells derived from log phase of tumor growth were injected via the lateral tail vein and lungs removed at different time points thereafter. For in situ quantification of tumor cells at early time points after injection (30 min), cells were vital dye stained using the fluorescein derivate 5- (and -6)-carboxyfluorescein diacetate succinimidyl ester (CFSE) before injection.
as §1, with “In” for “Cell culture, injection of tumor cells, dissection of the animals and immunohistochemistry were conducted as previously described (von Hörsten et al., 2000). In”
(§2) Osmotic minipumps (Alzet model 2ML4; flow rate, 2.5 μl/hr; Alza Corporation), administering a constant supply of the different compounds, aseptically prefilled with either saline or DPIV inhibitor were placed subcutaneously in the abdominal area. Minipums were attached to a cannula via polyethylene tubing. The cannula was implanted intragastrically with a heating-induced enlarged tip of the cannula in the lumen of the gaster.

MADB106 tumor cells [2] = experiment: In vivo cancer cell adhesion assay (CFSE labeled cells in lungs); parameters: species or system F344 rats; details: 30 min after inoculation
Procedure: as §1
Control sections were included in which one or both primary antibodies were omitted.
Vital dye (Carboxyfluorescein; CFSE) labeling of MADB106 tumor cells allows the quantification of tumor cells and NK cells in thick sections of lung tissue by stereology in situ (von Hörsten et al, 2000). In the present study we produced thin sections (8 μm) of the same lungs (n=10) and performed additional microscopic counting by image analysis of DE1 positive cells. This was done to further simplify the previously validated stereological quantification technique. Therefore, in the present study, the assessment of DE1 positive tumor cells in lung tissue from different substrains 30 min after tumor inoculation was carried out using image analysis approach. […] Each right upper lobe of the lungs was sectioned at 6 randomly chosen non-adjacent levels. From each level, three sections were evaluated.

MADB106 tumor cells [3] = experiment: Body weight change in rats with lung metastasis; type: in vivo; details: F344 rats, chronic intragastric infusion via osmotic minipumps, 0.04, 0.4, 4 mg/24 h, 2 weeks after MADB106 injection, post-hoc significant at 0.4 mg and 4 mg
Procedure: as §2
Data from in vivo body weight gain and number of lung surface tumor colonies were analyzed by one-way ANOVAs and Fisher's PLSD post hoc tests, if appropriate. An asterisk indicates significant post hoc effects vs. saline (SHAM) treated controls obtained by Fisher's PLSD. All data are presented as means±S.E.M.

MADB106 tumor cells [4] = experiment: Cancer colonization assay (lung surface tumor colonies); type: in vivo, F344 rats; details: F344USA rats, 2 mg i.v. + 2 mg i.p., 2 weeks after MADB106 injection, vs. saline; fumarate
[5] = REINHOLD, D., et al., 1998; cited from earlier work

CC[C@H](C)[C@H](N)C(=O)N1CCSC1 [Isoleucyl thiazolidine fumarate]
number of lung surface tumor colonies, different dosages (MADB106 tumor cells [1]; chronic intragastric infusion 0.04, 0.4, 4 mg/24 h, post-hoc significant at 4 mg, fumarate): significant effect; also recorded: dose dependent reduction of lung colony numbers | number of lung surface tumor colonies, comparison of inhibitors (MADB106 tumor cells [1]; fumarate): dose-dependently reduced; also recorded: significant reduction of lung colony numbers | tumor cell adhesion, CFSE positive cells in lung tissue (MADB106 tumor cells [2]; DPIV mutant F344GER and F344JAP rats, single injection 2 mg i.v. + 2 mg i.p., fumarate): significantly modified; also recorded: promoting effect | tumor cell adhesion, CFSE positive cells in lung tissue (MADB106 tumor cells [2]; wild-type F344USA rats, single injection i.v. + i.p., vs. saline, fumarate): did not significantly affect tumor adhesion; also recorded: lack of effects | body weight change (cancer-induced weight loss) (MADB106 tumor cells [3]; fumarate): dose-dependently reduced; also recorded: dose dependent reduction of the loss of body weight | number of lung surface tumor colonies after single injection (MADB106 tumor cells [4]): no significant effect; also recorded: no significant differences

CC[C@H](C)[C@H](N)C(=O)N1CCCC1C#N.O=C(O)C(F)(F)F (stereo partly drawn) [isoleucyl cyanopyrrolidine TFA]
number of lung surface tumor colonies, comparison of inhibitors (MADB106 tumor cells [1]; TFA): significant reduction of lung colony numbers | number of lung surface tumor colonies, comparison of inhibitors (MADB106 tumor cells [1]; listed as isoleucyl cyano pyrrolidine TFA, TFA): dose-dependently reduced | tumor cell adhesion, CFSE positive cells in lung tissue (MADB106 tumor cells [2]; wild-type F344USA rats, single injection i.v. + i.p., vs. saline, TFA): no significant effect; also recorded: significant differences vs. saline treated controls were not found | body weight change (cancer-induced weight loss) (MADB106 tumor cells [3]): dose-dependently reduced

N[C@@H](CCC(=O)NCC(=O)O)C(=O)N1CCSC1 [Glu(Gly)-Thia]
transport [5]: transported completely

N[C@@H](CCCCNC(=O)OCc1ccc([N+](=O)[O-])cc1)C(=O)N1CCSC1 [Lys(Z-NO2)-Thia]
transport [5]: transported completely
